In ChEMBL document CHEMBL4033625, “Novel organophosphorus scaffolds of urease inhibitors obtained by substitution of Morita-Baylis-Hillman adducts with phosphorus nucleophiles” (Eur J Med Chem, 2017):
pIC50, pKi: −log10 of the molar value. Activity calls are given as the source filed them. The rule behind the calls is not given here.

Tests used:
[1] = Competitive inhibition of Sporosarcina pasteurii CCM 2056 urease using varying levels of urea as substrate after 10 mins by Lineweaver-Burk plot analysis
[2] = Competitive inhibition of Sporosarcina pasteurii CCM 2056 urease using varying levels of urea as substrate pretreated for 60 mins followed by substrate addition after 10 mins by Lineweaver-Burk plot analysis
[3] = test system: Sporosarcina pasteurii; test: Potency index, ratio of Methyl (Z)-2-{[hydrogen(hydroxy)phosphoryl]methyl}-3-phenylpropenoate Ki to compound Ki for competitive inhibition of Sporosarcina pasteurii CCM 2056 urease using varying levels of urea as substrate pretreated for 60 mins followed by substrate addition measured after 10 mins
[4] = Inhibition of Sporosarcina pasteurii CCM 2056 urease using urea as substrate pretreated for 60 mins followed by substrate addition after 15 mins by phenol-hypochlorite reagent based colorimetric method
[5] = Inhibition of Sporosarcina pasteurii CCM 2056 urease using urea as substrate after 15 mins by phenol-hypochlorite reagent based colorimetric method
[6] = Inhibition of Proteus mirabilis urease
[7] = Irreversible inhibition of Sporosarcina pasteurii CCM 2056 urease assessed as reduction in ammonia production using urea as substrate measured for 120 mins by Berthelot colorimetric assay
[8] = test system: Sporosarcina pasteurii; test: Ratio of Kinact to Ki for Sporosarcina pasteurii CCM 2056 urease
[9] = Irreversible inhibition of Sporosarcina pasteurii CCM 2056 urease assessed as reduction in ammonia production using urea as substrate pretreated for 60 mins followed by substrate addition measured for 120 mins by Berthelot colorimetric assay
[10] = test system: Sporosarcina pasteurii; test: Inhibition of Sporosarcina pasteurii CCM 2056 urease up to 2 mM using urea as substrate pretreated for 60 mins followed by substrate addition after 15 mins by phenol-hypochlorite reagent based colorimetric method
[11] = Slow-binding inhibition of Sporosarcina pasteurii CCM 2056 urease using varying levels of urea as substrate pretreated for 60 mins followed by substrate addition after 120 mins by phenol-hypochlorite reagent based colorimetric method
[12] = Slow-binding inhibition of Sporosarcina pasteurii CCM 2056 urease using varying levels of urea as substrate after 120 mins by phenol-hypochlorite reagent based colorimetric method

SMILES | pKi [1] | pKi [2] | other results
COC(=O)/C(=C/c1ccc(F)cc1)CP(=O)(O)O | 4.14 | 4.20 | 
COC(=O)/C(=C/c1ccc(C)cc1)C[PH](=O)O | 4.38 | 4.63 | Ratio Ki [3]: 5 to 7
NCP(=O)(O)C/C(=C\c1ccccc1)C(=O)O | 2.85 | 2.88 | pIC50 [4]: 2.87; pIC50 [5]: 2.82
COC(=O)/C(=C/c1ccccc1)CCP(=O)(O)O | 5.44 | 5.52 | pIC50 [4]: 5.38; pKi [6]: 5.82; pIC50 [5]: 5.37
C=C(C(=O)OC)C(OC(C)=O)c1ccc(Cl)cc1 (configuration not stated) |  |  | pIC50 [7]: 4.27; Ratio [8]: 75.3 M⁻¹ s⁻¹; pIC50 [9]: 4.75
CP(=O)(O)C/C(=C\c1ccccc1)C(=O)O |  |  | inhibition [10]: inactive
C=C(C(=O)OC)C(OC(C)=O)c1ccccc1 (configuration not stated) |  |  | pIC50 [7]: < 3.00; Ratio [8]: < 1 M⁻¹ s⁻¹; pIC50 [9]: 3.06
COC(=O)/C(=C/c1ccccc1)CP(=O)(O)CN |  |  | inhibition [10]: inactive
O=C(O)/C(=C/c1ccccc1)CP(=O)(O)CO |  |  | inhibition [10]: inactive
C=C(C(=O)OC)C(OC(C)=O)c1ccc(F)cc1 (configuration not stated) |  |  | pIC50 [7]: 4.19; Ratio [8]: 525 M⁻¹ s⁻¹; pIC50 [9]: 5.38
COC(=O)/C(=C/c1ccccc1)CP(=O)(O)CO | 3.49 | 3.53 | pIC50 [4]: 3.51; pIC50 [5]: 3.33
COC(=O)/C(=C/c1ccccc1)CP(=O)(O)O |  |  | inhibition [10]: inactive
COC(=O)/C(=C/c1ccc(NC(C)=O)cc1)C[PH](=O)O | 4.69 | 4.87 | Ratio Ki [3]: 5 to 7
COC(=O)/C(=C/c1ccc(F)cc1)C[PH](=O)O | 4.75 | 4.84 | Ratio Ki [3]: 5 to 7
COC(=O)/C(=C/c1ccccc1)CP(C)(=O)O |  |  | inhibition [10]: inactive
O=C(O)/C(=C/c1ccccc1)CCP(=O)(O)O | 4.25 | 4.18 | pIC50 [4]: 4.32; pIC50 [5]: 4.08
COc1ccc(/C=C(\CP(=O)(O)O)C(=O)O)cc1 | 4.54 | 4.46 | 
C=C(C(=O)OC)C(OC(C)=O)c1ccc(OC)cc1 (configuration not stated) |  |  | pIC50 [7]: < 2.70; Ratio [8]: < 1 M⁻¹ s⁻¹; pIC50 [9]: 2.91
O=C(O)/C(=C/c1ccc(Cl)cc1)CP(=O)(O)O | 4.71 | 4.79 | 
COC(=O)/C(=C/c1ccc(F)cc1)CCP(=O)(O)O | 4.32 | 4.32 | 
Cc1ccc(/C=C(\C[PH](=O)O)C(=O)O)cc1 |  | 4.63 | 

SMILES | pKi [1] | pKi [2] | other results
Cc1ccc(/C=C(\CP(=O)(O)O)C(=O)O)cc1 | 6.17 | 6.23 | pKi [6]: 6.31
O=C(O)/C(=C/c1ccc(F)cc1)CP(=O)(O)O | 4.87 | 5.01 | 
COC(=O)/C(=C/c1ccc(Cl)cc1)CP(=O)(O)O | 4.05 | 4.09 | 
O=C(O)/C(=C/c1ccccc1)CP(=O)(O)O | 4.79 | 4.88 to 4.89 | pIC50 [4]: 4.56; pIC50 [5]: 4.35
O=C(O)/C(=C/c1ccc(F)cc1)CCP(=O)(O)O | 4.49 | 4.55 | 
C=C(C(=O)OC)C(OC(C)=O)c1ccc(C)cc1 (configuration not stated) |  |  | pIC50 [7]: < 3.00; Ratio [8]: 5.62 M⁻¹ s⁻¹; pIC50 [9]: 3.48
COC(=O)/C(=C/c1ccc(OC)cc1)CP(=O)(O)O | 3.62 | 3.64 | 
Cc1ccc(CC(CP(=O)(O)O)C(=O)O)cc1 (configuration not stated) | 4.06 | 4.04 | 
COC(=O)/C(=C/c1ccc(C)cc1)CP(=O)(O)O | 4.67 | 4.68 | 
O=C(O)/C(=C/c1ccccc1)C[PH](=O)O | 3.68 | 3.93 | pIC50 [4]: 3.63; pIC50 [5]: 3.46
COC(=O)/C(=C/c1ccc(OC)cc1)CCP(=O)(O)O | 3.49 | 3.53 | 
COC(=O)/C(=C/c1ccc(NC(C)=O)cc1)CP(=O)(O)O | 3.39 | 3.41 | 
C=C(C(=O)OC)C(OC(C)=O)c1ccc([N+](=O)[O-])cc1 (configuration not stated) |  |  | pIC50 [7]: 3.17; Ratio [8]: 2.34 M⁻¹ s⁻¹; pIC50 [9]: 3.65
COC(=O)/C(=C/c1ccc(OC)cc1)C[PH](=O)O | 3.80 | 3.83 | 
COC(=O)/C(=C/c1ccc([N+](=O)[O-])cc1)CCP(=O)(O)O |  |  | pKi [11]: 3.44; pKi [12]: 4.27
COC(=O)/C(=C/c1ccccc1)C[PH](=O)O | 3.75 | 4.01 | pIC50 [4]: 3.98; pIC50 [5]: 3.70
O=C(O)/C(=C/c1ccc([N+](=O)[O-])cc1)CCP(=O)(O)O |  |  | pKi [11]: 3.36; pKi [12]: 4.22
Cc1ccc(/C=C(\CCP(=O)(O)O)C(=O)O)cc1 |  | 4.18 | 
C=C(C(=O)OC)C(OC(C)=O)c1ccc(NC(C)=O)cc1 (configuration not stated) |  |  | pIC50 [7]: < 3.00; Ratio [8]: 2.78 M⁻¹ s⁻¹; pIC50 [9]: 3.52
COC(=O)/C(=C/c1ccc(Cl)cc1)C[PH](=O)O | 4.62 | 4.78 | Ratio Ki [3]: 5 to 7
